The numbers were not newly measured in paper PMC9324670, “Pd(II) Binding Strength of a Novel Ambidentate Dipeptide-Hydroxypyridinonate Ligand: A Solution Equilibrium Study” (Molecules, 2022), which cites them from elsewhere.

On the set-up of data set [1]: method as in doi:10.1016/S0020-1693(00)91874-7. To be noted: fixed values used in the equilibrium models.
The conditions of data set [2]: pH-potentiometry.

`[Cl][Pd+]` [[PdCl]^+]: the “logβ (stability constant of the complex in the Pd(II)–Cl^− system)” value (“logβ” for short) in data set [1] was 4.47. As to `Cc1c(O)c(=O)ccn1C` [H(L4), 3-hydroxy-1,2-dimethylpyridin-4(1H)-one], in data set [2], the “pKOH(3)” value is 9.76.

As for `[Cl][Pd-2]([Cl])([Cl])[Cl]` [[PdCl4]^2−], the “logβ” value in data set [1] was 11.56. In the case of `[Cl][Pd][Cl]` [[PdCl2]], the “logβ” value in data set [1] is on record as 7.76. As to `[Cl][Pd-]([Cl])[Cl]` [[PdCl3]^−], the “logβ” value in data set [1] was 10.17.
